# Data as given in patent US20260098072A1, “METHODS OF STIMULATING APPETITE AND/OR INCREASING BODY WEIGHT USING NON-NATURALLY OCCURRING MELANOCORTIN RECEPTOR ANTAGONIST ANALOGS” (Endevica Bio, Inc., priority 2022, published 2026).
# Values joined by “and” are separate entries in the source; they are usually repeats but may differ in a detail not shown here. Equal values may be shown once. Where a name gives a salt, the structure may show the parent alone. Positions of bridges follow the written chain, without caps; N, C: chain ends. Non-standard residues stand in square brackets, D forms with d. Residues, ends and D or L forms follow the SMILES beside them. d2Nal = N[C@H](Cc1ccc2ccccc2c1)C(=O)O; Hyp = O=C(O)[C@@H]1C[C@@H](O)CN1; Nle = CCCC[C@H](N)C(=O)O
# Tests used:
# human MC3R = target: T1, human MC3R (Homo sapiens, UniProt P41968); assay: cAMP accumulation assay (HTRF), antagonist activity at MC3R; type: cell-based; conditions: for Emax / IC50: HEK293/CRE-luc/MC3R; for Emax: 0.1 nM to 1,000 nM, read-out: Max Activation %; for Hill Coefficient / Top (%): dose-response fit, MC3R; for IC50: estimated from dose-response curve
# T1 construct: expressed in transfected cells; host or cells: HEK293/CRE-luc/MC3R
# T1 sequence (P41968 whole entry): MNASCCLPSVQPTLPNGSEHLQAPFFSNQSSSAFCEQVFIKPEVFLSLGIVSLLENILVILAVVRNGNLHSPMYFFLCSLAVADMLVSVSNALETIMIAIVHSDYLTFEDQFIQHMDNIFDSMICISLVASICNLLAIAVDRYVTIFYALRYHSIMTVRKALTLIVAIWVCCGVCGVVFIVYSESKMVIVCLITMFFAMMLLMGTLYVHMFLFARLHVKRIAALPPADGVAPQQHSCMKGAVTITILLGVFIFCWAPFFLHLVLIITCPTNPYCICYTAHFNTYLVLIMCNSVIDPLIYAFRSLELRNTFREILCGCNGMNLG
# Description: (§1) The antagonist activity of exemplary non-naturally occurring melanocortin analogs (SEQ ID NOs: 3, 4, 6, 9-11, 14, 15, and 291-309) at the melanocortin 3 receptor (MC3R) and melanocortin 4 (MC4R) receptor was measured via cAMP accumulation assay, according to the following procedure.
# (§2) Recombinant cell lines shown in Table 1 were stimulated with melanocortin receptor antagonists and evaluated for cyclic adenosine monophosphate (cAMP) levels as a measurement of receptor activation. cAMP levels were quantified using Homogeneous Time-Resolved Fluorescence (HTRF). The stimulation and CAMP measurement were performed sequentially. First, the compound stimulated the G-protein coupled receptor (GPCR) which then induced downstream signaling, which was measured soon after. Cell lines and stimulated receptors used are detailed in Table 1.
# (§3) Twenty-seven exemplary synthetic peptides were tested for antagonist activity at the human MC3R and MC4R at concentrations ranging from 0.1 nM to 1,000 nM. After stimulation, the level of cyclic adenosine monophosphate (CAMP) in each well was quantified via Homogenous Time-Resolved Fluorescence (HTRF) as a measurement of receptor activity. Dose-response curves and estimated IC50 values were then obtained for each antagonist peptide against the MC3R and MC4R. HS024 (TFA) and was used as a positive control for the antagonist activity of MC3R (FIG. 1A) and MC4R (FIG. 1B).
# human MC4R = target: T2, human MC4R (Homo sapiens, UniProt P32245); assay: cAMP accumulation assay (HTRF), antagonist activity at MC4R; type: cell-based; conditions: for Emax: HEK293, HEK293/MC4R/CRE-GFP, 0.1 nM to 1,000 nM, read-out: Max Activation %; for Hill Coefficient / Top (%): dose-response fit, MC4R; for IC50: HEK293/MC4R/CRE-GFP, estimated from dose-response curve
# T2 construct: expressed in transfected cells; host or cells: HEK293/MC4R/CRE-GFP
# T2 sequence (P32245 whole entry): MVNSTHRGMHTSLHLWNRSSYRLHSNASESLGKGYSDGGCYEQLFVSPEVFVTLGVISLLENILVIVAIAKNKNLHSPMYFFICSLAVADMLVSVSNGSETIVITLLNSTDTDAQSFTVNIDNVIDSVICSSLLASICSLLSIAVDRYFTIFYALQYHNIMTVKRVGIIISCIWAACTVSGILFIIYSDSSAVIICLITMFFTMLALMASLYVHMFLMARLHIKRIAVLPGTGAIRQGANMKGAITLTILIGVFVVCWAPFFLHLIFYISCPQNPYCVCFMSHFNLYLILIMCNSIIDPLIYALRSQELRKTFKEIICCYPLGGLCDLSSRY
# Description: as §1, §2, §3
Emax (human MC3R) [%],Hill Coefficient (human MC3R),Top (%) (human MC3R),Emax (human MC4R) [%],Hill Coefficient (human MC4R),Top (%) (human MC4R),IC50 (human MC3R),IC50 (human MC4R),Molecule
102,0.93,117.07,104,0.61,113.93%,–,–,"CCCC[C@@H]1NC(=O)[C@@H](NC(C)=O)CSSC[C@@H](C(N)=O)NC(=O)CNC(=O)[C@H](Cc2c[nH]c3ccccc23)NC(=O)[C@H](CCCNC(=N)N)NC(=O)[C@@H](Cc2ccc3ccccc3c2)NC(=O)[C@H](Cc2c[nH]cn2)NC(=O)[C@H](CCCNC(=N)N)NC1=O [HS024(TFA), reference compound] (Ac-C[Nle]RH[d2Nal]RWGC-NH2; disulfide 1-9 (inferred); N-terminus and C-terminus assumed)"
84.4,0.55,1002.64,–,0.43 and 0.32,1195.94% and 652.03%,< 10 µM,< 10 µM,"CCCC[C@H](NC(C)=O)C(=O)N[C@@H](CC(=O)O)C(=O)N1CCC[C@H]1C(=O)N[C@H](Cc1ccc2ccccc2c1)C(=O)N[C@@H](CCCNC(=N)N)C(=O)N[C@@H](Cc1c[nH]c2ccccc12)C(=O)N[C@@H](CCCCN)C(=O)N[C@@H](C(=O)N1CCC[C@@H]1C(N)=O)C(C)C [Peptide A1, Ac-Nle-Asp-Pro-Dnal(2′)-Arg-Trp-Lys-Dval-Dpro-NH2] (Ac-[Nle]DP[d2Nal]RWK[dV][dP]-NH2)"
74.5,0.73,4952.72,49.4,0.55,2739.03%,< 10 µM,> 10 µM,"CCCC[C@H](NC(C)=O)C(=O)N[C@H]1CC(=O)NCCCC[C@@H](C(=O)N[C@@H](C(=O)N2CCC[C@@H]2C(N)=O)C(C)C)NC(=O)[C@H](Cc2c[nH]c3ccccc23)NC(=O)[C@H](CCCNC(=N)N)NC(=O)[C@@H](Cc2ccc3ccccc3c2)NC(=O)[C@H](Cc2c[nH]cn2)NC(=O)[C@@H]2CCCN2C1=O [Peptide D1, Ac-Nle-c(Asp-Pro-His-Dnal(2′)-Arg-Trp-Lys)-Dval-Dpro-NH2] (Ac-[Nle]DPH[d2Nal]RWK[dV][dP]-NH2; lactam 2-8)"
111,0.98,113.20,117,0.80,119.03%,< 10 µM and 0.087 µM,< 10 µM and 0.0406 µM,"CCCC[C@H](NC(C)=O)C(=O)N[C@H]1CC(=O)NCCCC[C@@H](C(=O)N[C@@H](C(=O)N2CCC[C@@H]2C(N)=O)C(C)C)NC(=O)[C@H](Cc2c[nH]c3ccccc23)NC(=O)[C@H](CCCNC(=N)N)NC(=O)[C@@H](Cc2ccc3ccccc3c2)NC(=O)[C@@H]2C[C@@H](O)CN2C1=O [Peptide D3, Ac-Nle-c(Asp-Hyp-Dnal(2′)-Arg-Trp-Lys)-Dval-Dpro-NH2] (Ac-[Nle]D[Hyp][d2Nal]RWK[dV][dP]-NH2; lactam 2-7)"
50.1,0.65,2741.58,21,0.92,9354.39%,> 10 µM,–,"CCCC[C@H](NC(C)=O)C(=O)N[C@H]1CC(=O)NCCCC[C@@H](C(=O)N[C@@H](C(=O)N2CCC[C@@H]2C(N)=O)C(C)C)NC(=O)[C@@H]2CCCN2C(=O)[C@H](Cc2c[nH]c3ccccc23)NC(=O)[C@H](CCCNC(=N)N)NC(=O)[C@@H](Cc2ccc3ccccc3c2)NC(=O)[C@@H]2C[C@@H](O)CN2C1=O [Peptide D4, Ac-Nle-c(Asp-Hyp-Dnal(2′)-Arg-Trp-Pro-Lys)-Dval-Dpro-NH2] (Ac-[Nle]D[Hyp][d2Nal]RWPK[dV][dP]-NH2; lactam 2-8)"
–,0.82,9.73,–,–,–,–,–,Ac-Nle-Pro-Dnal(2′)-Arg-Trp-Dval-Dpro-NH2 (Ac-[Nle]P[d2Nal]RW[dV][dP]-NH2; SMILES CCCC[C@H](NC(C)=O)C(=O)N1CCC[C@H]1C(=O)N[C@H](Cc1ccc2ccccc2c1)C(=O)N[C@@H](CCCNC(=N)N)C(=O)N[C@@H](Cc1c[nH]c2ccccc12)C(=O)N[C@@H](C(=O)N1CCC[C@@H]1C(N)=O)C(C)C) [Peptide A2]
